The record followed here is US20240374573A1, “IMIDAZOLE CONTAINING COMPOUNDS, DERIVATIVES THEREFORE, AND USES THEREOF” (AglaeaPharma Inc., priority 2023, published 2024).

The first test concerns the target T1, α2AAR (α2A-adrenergic receptor) (Homo sapiens, UniProt P08913).
T1 construct: expressed in transfected cells; host or cells: HEK293
T1 sequence (P08913 1-465): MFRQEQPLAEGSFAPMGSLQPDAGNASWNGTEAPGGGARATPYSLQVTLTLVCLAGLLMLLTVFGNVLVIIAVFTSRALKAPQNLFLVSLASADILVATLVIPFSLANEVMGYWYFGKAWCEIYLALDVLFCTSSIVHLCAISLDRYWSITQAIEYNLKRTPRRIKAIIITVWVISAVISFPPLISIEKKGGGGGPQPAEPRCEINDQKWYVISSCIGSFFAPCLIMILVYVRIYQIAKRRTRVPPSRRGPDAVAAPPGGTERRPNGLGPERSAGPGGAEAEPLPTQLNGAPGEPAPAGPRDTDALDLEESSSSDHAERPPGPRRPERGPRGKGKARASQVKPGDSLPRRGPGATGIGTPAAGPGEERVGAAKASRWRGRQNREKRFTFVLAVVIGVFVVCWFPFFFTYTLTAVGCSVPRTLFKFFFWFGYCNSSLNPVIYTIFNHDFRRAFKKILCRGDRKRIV
Description: α2AAR FLIPR assay (agonist activity). The class given is cell-based. The note with it: FLIPR, α2AAR cell line hosted in HEK293 cells; read-out: α2A agonist activity (EC50). The protocol:
This experimental protocol involved cell seeding and a FLIPR assay using the α2AAR (α2A-adrenergic receptor) cell line hosted in HEK293 cells. […] On Day 1, the cell seeding process started with the removal of the culture medium, followed by rinsing the cells with DPBS (21-031-CVC, Corning). […] The cells were detached, resuspended in growth media, and centrifuged at room temperature at 1000 rpm for 5 minutes. After discarding the supernatant, the cell pellet was resuspended in growth media to a concentration of 10× 10^5 cells per mL. This suspension was added to 384-well plates (19-Jul-38, Greiner) at 20 μL per well and incubated overnight at 37° C. in 5% CO2.
A 250 mM Probenecid solution was prepared in this buffer. The Fluo-4 Direct™ Loading Buffer was made by dissolving Fluo-4 Direct™ crystals (F10471, Invitrogen) in the FLIPR Assay Buffer and adding Probenecid. The buffer was then vortexed and allowed to stand for over 5 minutes, shielded from light. For the FLIPR procedure, testing compounds for agonist activite were serially diluted and transferred to a 384-well compound plate (25-Jan-39, Greiner). The cell plate was then treated with 2× Fluo-4 Direct™ loading buffer and incubated for 50 minutes at 37° C. in a 5% CO2 atmosphere, followed by 10 minutes at room temperature. Subsequently, the FLIPR assay buffer was added to the compound plate, which is then centrifuged.
The cell plate was analyzed in the FLIPR Tetra+ System for fluorescence signals. For the agonist test, reference compounds were added to the cell plates, and fluorescence was measured. The “Max-Min” calculation began from Read 1 to the maximum allowed. The data were analyzed using Prism software to calculate activation percentage for agonists and inhibition percentage for antagonists. The results were then fitted using specific models to determine EC50 for agonists.
The experimental protocol utilized various reagents and apparatus, including Penicillin/Streptomycin (100×) (SV30010, Hyclone), Poly-L-lysine hydrobromide (P1399, Sigma), and different types of 384-well plates such as the 384-Well PP 2.0 Microplate (PP-0200, LABCYTE) and 384 well Low Dead Volume Microplate (LP-0200, LABCYTE). The use of specific reference compounds like UK14304 was also integral to the assay.
Regarding `CONC(=O)c1cccc(C(c2c[nH]cn2)c2cccc(C)c2C)c1` (single isomer, unassigned) [1-A], the EC50 (commonly the concentration at which the effect is half-maximal) is greater than 1000 nM.

Turning to `Cc1cccc(C(c2cccc(C(N)=O)c2)c2c[nH]cn2)c1C` (single isomer, unassigned) [5-A], the EC50 is greater than 1000 nM.

Take `Cc1cccc(C(c2cccc(NC(=O)CC#N)c2)c2c[nH]cn2)c1C` (single isomer, unassigned) [10-A]: the EC50 is greater than 1000 nM.

In the case of `CNC(=O)NCCOCCOCC(c1c[nH]cn1)c1cccc(C)c1C` (single isomer, unassigned) [17-A], the EC50 is greater than 1000 nM.

As to `Cc1cccc(C(c2cccc(C(=O)NC3CCOCC3)c2)c2c[nH]cn2)c1C` (single isomer, unassigned) [121-A], the EC50 was greater than 1000 nM.

In the case of `Cc1cccc(C(Cc2ccc(C(C)C(=O)O)cc2)c2c[nH]cn2)c1C` (single isomer, unassigned) [174-A], the EC50 is greater than 1000 nM.

As for `Cc1cccc(C(Cc2ccc(C(C)C(=O)O)cc2)c2c[nH]cn2)c1C` (single isomer, unassigned) [174-C], the EC50 lay in the range of 250 to 1000 nM.

In the case of `Cc1cccc(C(c2cccc(C(=O)NCCO)c2)c2c[nH]cn2)c1C` (stereo not drawn) [compound 2], the EC50 was in the range of 10 to 50 nM.

Consider `COCCOCCNC(=O)c1cccc(C(c2c[nH]cn2)c2cccc(C)c2C)c1` (stereo not drawn) [compound 3], for which the EC50 lay in the range of 10 to 50 nM.

With `Cc1cccc(C(c2cccc(OCCNC(=O)Nc3ccncn3)c2)c2c[nH]cn2)c1C` (stereo not drawn) [compound 4], the EC50 was in the range of 50 to 250 nM.

For `Cc1cccc(C(c2cccc(C(N)=O)c2)c2c[nH]cn2)c1C` (stereo not drawn) [compound 5], the EC50 was 10 to 50 nM.

For `CONC(=O)c1cccc(C(c2c[nH]cn2)c2cccc(O)c2C)c1` (stereo not drawn) [compound 7], the concentration for a half-maximal effect (EC50) was in the range of 250 to 1000 nM.

Regarding `CONC(=O)c1cccc(C(c2c[nH]cn2)c2cccc(C)c2C)c1O` (stereo not drawn) [compound 8], the EC50 fell in the range of 10 to 50 nM.

As to `Cc1cccc(C(c2c[nH]cn2)c2cccc(C(N)=O)c2O)c1C` (stereo not drawn) [compound 9], the EC50 lay within 10 to 50 nM.

Take `Cc1cccc(C(c2cccc(NC(=O)CC#N)c2)c2c[nH]cn2)c1C` (stereo not drawn) [compound 10]: the EC50 is 10 to 50 nM.

Consider `Cc1cccc(C(c2cccc(C(=O)O)c2)c2c[nH]cn2)c1C` (stereo not drawn) [compound 11], for which the EC50 is 250 to 1000 nM.

`Cc1cccc(C(c2ccc(C(=O)O)cc2)c2c[nH]cn2)c1C` (stereo not drawn) [compound 12]: the EC50 is greater than 1000 nM.

For the compound `Cc1cccc(C(c2ccc(O)cc2)c2c[nH]cn2)c1C` (stereo not drawn) [compound 13], the EC50 was greater than 1000 nM.

For the compound `CNC(=O)Nc1ccc(C(c2c[nH]cn2)c2cccc(C)c2C)cc1` (stereo not drawn) [compound 14], the EC50 is greater than 1000 nM.

As for `COCCOCCOCCOCCOCCOc1ccc(C(c2c[nH]cn2)c2cccc(C)c2C)cc1` (stereo not drawn) [compound 15], the 50% effective concentration (EC50) is greater than 1000 nM.

Turning to `COCCOCCOCCOCC(c1c[nH]cn1)c1cccc(C)c1C` (stereo not drawn) [compound 16], the EC50 lay within 10 to 50 nM.

With `CNC(=O)NCCOCCOCC(c1c[nH]cn1)c1cccc(C)c1C` (stereo not drawn) [compound 17], the EC50 was 10 to 50 nM.

As to `Cc1cccc(C(COCCOCCNS(C)(=O)=O)c2c[nH]cn2)c1C` (stereo not drawn) [compound 18], the EC50 is 10 to 50 nM.

As to `Cc1cccc(C(COCCOCCN)c2c[nH]cn2)c1C` (stereo not drawn) [compound 19], the EC50 was 50 to 250 nM.

For `COCCOCCOCCOCCOCCOCCCC(c1c[nH]cn1)c1cccc(C)c1C` (stereo not drawn) [compound 21], the EC50 was greater than 1000 nM.

In the case of `Cc1cccc(C(c2cccc(C(=O)N3CCOCC3)c2)c2c[nH]cn2)c1C` (stereo not drawn) [compound 23], the EC50 fell in the range of 250 to 1000 nM.

Turning to `CC(=O)NCCOCCOCC(c1c[nH]cn1)c1cccc(C)c1C` (stereo not drawn) [compound 25], the EC50 was 50 to 250 nM.

In the case of `Cc1cccc(C(c2cccc(C(=O)N(C)C)c2)c2c[nH]cn2)c1C` (stereo not drawn) [compound 33], the EC50 was 50 to 250 nM.

For the compound `Cc1cccc(C(c2c[nH]cn2)c2ccccc2C(N)=O)c1C` (stereo not drawn) [compound 34], the EC50 is greater than 1000 nM.

Take `CONC(=O)c1cccc(C(c2c[nH]cn2)c2cccc(Cl)c2Cl)c1` (stereo not drawn) [compound 35]: the EC50 was in the range of 50 to 250 nM.

Regarding `CONC(=O)c1cccc(C(c2c[nH]cn2)c2cccc(Cl)c2C)c1` (stereo not drawn) [compound 36], the EC50 fell in the range of 50 to 250 nM.

Consider `COCCOCCOCC(c1c[nH]cn1)c1cccc(C)c1C` (stereo not drawn) [compound 37], for which the EC50 fell in the range of 50 to 250 nM.

The same test, now with this note: α2A agonist activity (EC50, nM).
On to `CNC(=O)c1cccc(C(c2c[nH]cn2)c2cccc(C)c2C)c1` (stereo not drawn) [compound 6], for which the EC50 lay in the range of 10 to 50 nM.

In turn, `CNCCOCCOCC(c1c[nH]cn1)c1cccc(C)c1C` (stereo not drawn) [compound 24] displayed an EC50 of 250 to 1000 nM.

The target in the next test is T2, α2AAR (Homo sapiens, UniProt P08913).
T2 construct: host or cells: HEK293 (membranes)
T2 sequence (P08913 1-465): T1 sequence (P08913 1-465)
Description: α2AAR binding assay ([3H]-RX 821002 radioligand). The note with it: [3H]-RX 821002 0.5 nM, HEK293 membranes; read-out: α2A affinity (Ki). The protocol: The α2AR Binding Assay was conducted using a stable HEK293 cell line, specifically constructed by WuXi AppTec for targeting α2AAR. […] Both the assay and wash buffers consist of 50 mM Tris-HCl at a pH of 7.4 (Tris base, Sigma, T1503-1 KG).
The procedure initiated with the preparation of test compounds and a reference compound, yohimbine (Sigma, Y3125), through an 8-point 4-fold serial dilution, transferring 1 μL of each to the assay plate. […] After scaling, the plates were agitated at room temperature for one hour. Subsequently, the Unifilter-96 GF/C filter plates were pre-soaked with 0.3% PEI (Sigma, P3143) for at least half an hour. The reaction mixtures were then filtered and washed four times with cold wash buffer using a Perkin Elmer Cell harvester. Post-filtration, the plates were dried at 50° C. for one hour. […] The top of the plates was then sealed with TopSeal-A sealing film. The trapped 3H was quantified using a Perkin Elmer MicroBeta2 Reader. […] Finally, the data were analyzed with Prism 5.0 software, employing the “log (inhibitor) vs. response-Variable slope” model for data fitting. This comprehensive process ensured precise assessment of the binding affinity of compounds to the α2AAR.
As to `Cc1cccc(C(c2cccc(NS(=O)(=O)CCc3cncnc3)c2)c2c[nH]cn2)c1C` (stereo not drawn) [compound 189], the Ki (as a rule, the dissociation constant of the complex between target and ligand, obtained from inhibition or displacement) was 10 to 50 nM.

Turning to `Cc1cccc(C(CCCCNS(C)(=O)=O)c2c[nH]cn2)c1C` (stereo not drawn) [compound 191], the Ki fell in the range of 50 to 250 nM.

Take `Cc1cccc(C(Cc2ccc(P(=O)(O)O)cc2)c2c[nH]cn2)c1C` (stereo not drawn) [compound 199]: the Ki was greater than 1000 nM.

For `Cc1cccc(C(Cc2ccc(C(N)=O)nc2)c2c[nH]cn2)c1C` (stereo not drawn) [compound 238], the Ki lay within 50 to 250 nM.

Take `Cc1cccc(C(CCCCCC(N)=O)c2c[nH]cn2)c1C` (stereo not drawn) [compound 240]: the Ki fell in the range of 250 to 1000 nM.

Take `Cc1cccc(C(CCCCNS(=O)(=O)C2CCOCC2)c2c[nH]cn2)c1C` (stereo not drawn) [compound 250]: the Ki lay within 50 to 250 nM.

In the case of `Cc1csc(C)c1C(c1cccc(NS(C)(=O)=O)c1)c1c[nH]cn1` (stereo not drawn) [compound 402], the Ki lay within 250 to 1000 nM.

With `CS(=O)(=O)Nc1cccc(CC(C2=NCCN2)c2c(Cl)cccc2Cl)c1` (stereo not drawn) [compound 501], the Ki lay in the range of 250 to 1000 nM.

Take `NC(=O)c1cccc(CC(Oc2c(Cl)cccc2Cl)C2=NCCN2)c1` (stereo not drawn) [compound 502]: the Ki is 50 to 250 nM.

Take `Cc1cccc(C(NC2=NCCS2)c2cccc(NS(C)(=O)=O)c2)c1C` (stereo not drawn) [compound 504]: the Ki fell in the range of 50 to 250 nM.

As to `Cc1cccc(C(NC2=NCCS2)c2cccc(NC(=O)CC3CCOCC3)c2)c1C` (stereo not drawn) [compound 507], the Ki lay within 10 to 50 nM.

Regarding `CONC(=O)c1cccc(C(NC2=NCCS2)c2ccccc2OC)c1` (stereo not drawn) [compound 508], the Ki fell in the range of 250 to 1000 nM.

Regarding `Cc1cccc(C(Cc2cccc(NS(C)(=O)=O)c2)C2=NCCN2)c1C` (stereo not drawn) [compound 510], the Ki fell in the range of 50 to 250 nM.

Take `CONC(=O)c1cccc(CC(NC2=NCCS2)c2cccc(C)c2C)c1` (stereo not drawn) [compound 511]: the Ki is less than 10 nM.

`CONC(=O)c1cccc(CC(NC2=NCCS2)c2cccc(Cl)c2Cl)c1` (stereo not drawn) [compound 512]: the Ki was less than 10 nM.

For `CONC(=O)c1cc(CC(NC2=NCCS2)c2ccccc2OC)ccn1` (stereo not drawn) [compound 513], the Ki is less than 10 nM.

For `COc1ccccc1C(NC1=NCCS1)c1cccc(NC(=O)CC2CCOCC2)c1` (stereo not drawn) [compound 514], the Ki lay in the range of 50 to 250 nM.

Consider `Cc1cccc(C(Cc2ccc(NS(C)(=O)=O)cc2)C2=NCCN2)c1C` (stereo not drawn) [compound 518], for which the Ki was 50 to 250 nM.

In the case of `COCCOCc1cccc(Cl)c1NC1=NCCN1` [compound 520], the Ki lay within 250 to 1000 nM.

Staying with this test, now noted: α2A affinity (Ki, nM).
For `Cc1cccc(C(CCCCCNS(C)(=O)=O)c2c[nH]cn2)c1C` (stereo not drawn) [compound 249], the Ki is 50 to 250 nM.
